Assay results published in paper PMC4403045 (EMBO Molecular Medicine, 2015).
Like-named read-outs stand apart in the source and are kept apart here. One block for each compound: values may come before it.

Tests used:
[1] = system: human NSCLC cell line H460; assay: H460 xenograft in nude mice; assay type: in vivo; details: single dose CY 20, 40, 60 mg/kg; bendamustine 40 mg/kg
Method: (§1) Experimental procedures were approved by the Animal Care and Use Committee of Shanghai Institute of Biochemistry and Cell Biology, Chinese Academy of Sciences. In all, 200 wild-type C57BL/6 mice (6 weeks old, female) were used for determining maximally tolerated dose of CY, and testing CY and other drugs' efficacy in the BCR-ABL ALL model. BCR-ABL cells have been previously described (Williams et al, [2006]). For in vivo experiments, 1 million cells were injected into mice via tail vein (Williams et al, [2006]). At 7 days postinjection, mice were treated with indicated drugs at their MTDs. Mice were monitored daily for survival after drug treatment. Survival curve and statistical analysis were done using the Prism software. For xenograft H460 model, in all, nude mice (8 weeks old, female) were used to test CY and bendamustine's in vivo efficacy. The numbers of mice used in each experimental group are labeled on Fig4.

[2] = system: HDAC activities in H1650 cells; assay: histone acetylation markers by Western blot in H1650 cells; assay type: cell-based; details: 12 h, 20 μM CY, 20 μM CpdA, 200 μM CpdB, 200 μM Bend
[3] = system: NCI60 cell lines; assay: GI50 in the NCI60 cell line panel; assay type: cell-based; details: Homo sapiens
Method: (§2) Cells were seeded in 96-well plates, treated with different concentrations of drugs for 48 h, and cell viability was analyzed by MTT assays according to manufacturer's protocols. Experiments to determine GI50 with the NCI60 panel cell lines (http://dtp.nci.nih.gov/branches/btb/ivclsp.html) were performed at NCI (Alley et al, [1988]; Shoemaker, [2006]).

[4] = biological target: HDAC2 (Homo sapiens, UniProt Q92769); assay: in vitro HDAC inhibition assay, HDAC2; assay type: biochemical
Sequence of HDAC2 (Q92769 whole entry): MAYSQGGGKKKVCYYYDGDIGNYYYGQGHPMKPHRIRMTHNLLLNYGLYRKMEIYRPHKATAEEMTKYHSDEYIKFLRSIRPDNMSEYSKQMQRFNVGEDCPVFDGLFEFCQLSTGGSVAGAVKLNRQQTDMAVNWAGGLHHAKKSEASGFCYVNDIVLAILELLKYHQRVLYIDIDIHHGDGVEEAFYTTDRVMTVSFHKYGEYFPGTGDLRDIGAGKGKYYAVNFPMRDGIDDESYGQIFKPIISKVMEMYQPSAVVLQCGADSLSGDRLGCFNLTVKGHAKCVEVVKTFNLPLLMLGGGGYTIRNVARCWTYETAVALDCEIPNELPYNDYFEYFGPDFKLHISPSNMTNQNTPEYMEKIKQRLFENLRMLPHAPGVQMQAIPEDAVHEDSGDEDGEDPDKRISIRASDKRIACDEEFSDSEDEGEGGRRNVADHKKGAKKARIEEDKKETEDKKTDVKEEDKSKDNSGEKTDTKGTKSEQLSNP

[5] = viability of healthy primary B cells; assay type: cell-based; details: human, healthy primary CD19+ B cells from blood donors, 20 μM CY
Excerpt: This study was approved by the ethics committee of the University of Cologne (approval 01-163). Blood samples were obtained from patients fulfilling diagnostic criteria for CLL with informed consent according to the Helsinki protocol. Only patients without prior therapy or at least 12 months without prior chemotherapy were included in this study. Fresh blood samples were enriched by applying B-RosetteSep (StemCell Technologies, Vancouver, Canada) to aggregate unwanted cells with erythrocytes and Ficoll-Hypaque (Seromed, Berlin, Germany) density gradient purification resulting in purity > 98% of CD19^+/CD5^+ CLL cells. CLL cells were characterized for CD19, CD5, CD23, FMC7, CD38, ZAP-70, slgM, slgG, CD79a, and CD79b expression on a FACSCanto flow cytometer (BD PharMingen, Heidelberg, Germany). Controls were isolated from healthy blood donors using anti-CD19 MACS beads (Miltenyi, Bergisch Gladbach, Germany) resulting in at least 95% CD19^+ B cells.
Apoptosis was determined by flow cytometry using Annexin V-FITC/7AAD staining (BD PharMingen) after 72 h. […] The fraction of viable cells was determined by counting annexin V/7-AAD double-negative cells for each individual dosage. Median values were subsequently applied for regression analysis and calculation of the half-maximal dosage effect (IC50). […] IC50 values were determined by fitting data to the Hill equation y = y0 + (axb)/(cb+xb).

[6] = biological target: HDAC3 (Homo sapiens, UniProt O15379); assay: in vitro HDAC inhibition assay, HDAC3; assay type: biochemical
Sequence of HDAC3 (O15379 whole entry): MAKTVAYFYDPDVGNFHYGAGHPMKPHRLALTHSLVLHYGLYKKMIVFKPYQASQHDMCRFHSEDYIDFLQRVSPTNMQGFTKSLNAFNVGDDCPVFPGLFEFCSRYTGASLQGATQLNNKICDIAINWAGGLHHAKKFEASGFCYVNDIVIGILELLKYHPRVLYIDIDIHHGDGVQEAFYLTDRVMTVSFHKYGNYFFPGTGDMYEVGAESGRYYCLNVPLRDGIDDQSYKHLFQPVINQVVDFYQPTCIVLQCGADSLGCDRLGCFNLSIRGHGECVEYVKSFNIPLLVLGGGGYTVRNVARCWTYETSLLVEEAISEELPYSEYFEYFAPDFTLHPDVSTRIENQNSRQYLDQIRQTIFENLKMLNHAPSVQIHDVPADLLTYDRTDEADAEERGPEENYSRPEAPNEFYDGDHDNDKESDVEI
Sequence of HDAC3 (Q9Y618 395-489 partner limits assumed): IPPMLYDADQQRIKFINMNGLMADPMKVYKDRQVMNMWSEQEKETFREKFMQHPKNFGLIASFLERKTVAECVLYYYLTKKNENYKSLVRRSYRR

[7] = system: MEFs; assay: GI50 in MEFs; assay type: cell-based
Method: as §2

[8] = biological target: HDAC4 (Homo sapiens, UniProt P56524); assay: in vitro HDAC inhibition assay, HDAC4; assay type: biochemical
Sequence of HDAC4 (P56524 whole entry): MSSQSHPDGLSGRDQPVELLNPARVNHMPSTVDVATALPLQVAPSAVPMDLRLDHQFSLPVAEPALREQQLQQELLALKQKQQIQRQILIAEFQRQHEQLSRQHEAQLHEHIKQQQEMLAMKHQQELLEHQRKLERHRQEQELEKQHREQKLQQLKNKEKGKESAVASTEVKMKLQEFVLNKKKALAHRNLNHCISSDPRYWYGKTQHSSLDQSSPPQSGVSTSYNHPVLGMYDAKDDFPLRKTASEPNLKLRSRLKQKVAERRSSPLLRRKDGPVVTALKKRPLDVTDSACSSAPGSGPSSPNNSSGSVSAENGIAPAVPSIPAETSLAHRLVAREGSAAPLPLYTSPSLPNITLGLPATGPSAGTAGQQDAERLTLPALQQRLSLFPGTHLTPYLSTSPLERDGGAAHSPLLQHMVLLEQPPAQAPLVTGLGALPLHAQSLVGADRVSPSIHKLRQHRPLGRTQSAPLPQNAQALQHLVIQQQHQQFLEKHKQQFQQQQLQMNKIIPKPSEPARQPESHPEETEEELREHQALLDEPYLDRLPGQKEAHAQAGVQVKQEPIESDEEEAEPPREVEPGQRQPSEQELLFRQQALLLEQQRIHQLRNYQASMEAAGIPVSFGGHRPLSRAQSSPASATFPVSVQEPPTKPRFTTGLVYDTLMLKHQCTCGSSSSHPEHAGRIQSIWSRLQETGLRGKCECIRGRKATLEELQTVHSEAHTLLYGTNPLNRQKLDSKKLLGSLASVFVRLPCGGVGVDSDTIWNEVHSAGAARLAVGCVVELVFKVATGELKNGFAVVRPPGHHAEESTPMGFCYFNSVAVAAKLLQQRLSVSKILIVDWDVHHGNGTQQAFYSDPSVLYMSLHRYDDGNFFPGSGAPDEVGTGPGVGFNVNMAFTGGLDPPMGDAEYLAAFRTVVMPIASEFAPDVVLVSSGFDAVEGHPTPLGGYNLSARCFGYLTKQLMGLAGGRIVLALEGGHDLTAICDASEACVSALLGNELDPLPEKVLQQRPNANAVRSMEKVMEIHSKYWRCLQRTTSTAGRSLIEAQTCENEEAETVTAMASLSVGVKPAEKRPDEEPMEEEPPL

[9] = system: CBP, TIP60, MORF, and MSL1 expression in H1650 cells; assay type: cell-based
[10] = maximally tolerated dose in mice; details: female, C57BL/6, mouse, in vivo
Method: as §1

[11] = biological target: HDAC1 (Homo sapiens, UniProt Q13547); assay: in vitro HDAC1 inhibition assay; assay type: biochemical
Sequence of HDAC1 (Q13547 whole entry): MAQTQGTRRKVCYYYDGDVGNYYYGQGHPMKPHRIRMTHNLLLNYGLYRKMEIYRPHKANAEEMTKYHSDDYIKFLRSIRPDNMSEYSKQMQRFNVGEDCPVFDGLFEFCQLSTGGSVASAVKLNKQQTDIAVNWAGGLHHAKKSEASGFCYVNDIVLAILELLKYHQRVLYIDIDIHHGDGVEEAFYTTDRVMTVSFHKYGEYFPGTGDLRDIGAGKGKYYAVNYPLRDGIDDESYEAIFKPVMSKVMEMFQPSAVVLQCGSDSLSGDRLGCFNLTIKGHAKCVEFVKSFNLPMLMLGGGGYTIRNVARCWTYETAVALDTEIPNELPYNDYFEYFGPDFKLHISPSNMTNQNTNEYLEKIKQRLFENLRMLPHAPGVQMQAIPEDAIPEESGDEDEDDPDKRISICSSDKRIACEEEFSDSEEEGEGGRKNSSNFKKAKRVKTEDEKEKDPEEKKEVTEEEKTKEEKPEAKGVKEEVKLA

[12] = system: human AML cells; assay: patient derived xenograft mouse model of human AML; details: done by other collaborators; review file
[13] = biological target: T1, HDAC6 (Homo sapiens, UniProt Q9UBN7); assay: in vitro HDAC inhibition assay, HDAC6; assay type: biochemical
T1 sequence (Q9UBN7 1-1215): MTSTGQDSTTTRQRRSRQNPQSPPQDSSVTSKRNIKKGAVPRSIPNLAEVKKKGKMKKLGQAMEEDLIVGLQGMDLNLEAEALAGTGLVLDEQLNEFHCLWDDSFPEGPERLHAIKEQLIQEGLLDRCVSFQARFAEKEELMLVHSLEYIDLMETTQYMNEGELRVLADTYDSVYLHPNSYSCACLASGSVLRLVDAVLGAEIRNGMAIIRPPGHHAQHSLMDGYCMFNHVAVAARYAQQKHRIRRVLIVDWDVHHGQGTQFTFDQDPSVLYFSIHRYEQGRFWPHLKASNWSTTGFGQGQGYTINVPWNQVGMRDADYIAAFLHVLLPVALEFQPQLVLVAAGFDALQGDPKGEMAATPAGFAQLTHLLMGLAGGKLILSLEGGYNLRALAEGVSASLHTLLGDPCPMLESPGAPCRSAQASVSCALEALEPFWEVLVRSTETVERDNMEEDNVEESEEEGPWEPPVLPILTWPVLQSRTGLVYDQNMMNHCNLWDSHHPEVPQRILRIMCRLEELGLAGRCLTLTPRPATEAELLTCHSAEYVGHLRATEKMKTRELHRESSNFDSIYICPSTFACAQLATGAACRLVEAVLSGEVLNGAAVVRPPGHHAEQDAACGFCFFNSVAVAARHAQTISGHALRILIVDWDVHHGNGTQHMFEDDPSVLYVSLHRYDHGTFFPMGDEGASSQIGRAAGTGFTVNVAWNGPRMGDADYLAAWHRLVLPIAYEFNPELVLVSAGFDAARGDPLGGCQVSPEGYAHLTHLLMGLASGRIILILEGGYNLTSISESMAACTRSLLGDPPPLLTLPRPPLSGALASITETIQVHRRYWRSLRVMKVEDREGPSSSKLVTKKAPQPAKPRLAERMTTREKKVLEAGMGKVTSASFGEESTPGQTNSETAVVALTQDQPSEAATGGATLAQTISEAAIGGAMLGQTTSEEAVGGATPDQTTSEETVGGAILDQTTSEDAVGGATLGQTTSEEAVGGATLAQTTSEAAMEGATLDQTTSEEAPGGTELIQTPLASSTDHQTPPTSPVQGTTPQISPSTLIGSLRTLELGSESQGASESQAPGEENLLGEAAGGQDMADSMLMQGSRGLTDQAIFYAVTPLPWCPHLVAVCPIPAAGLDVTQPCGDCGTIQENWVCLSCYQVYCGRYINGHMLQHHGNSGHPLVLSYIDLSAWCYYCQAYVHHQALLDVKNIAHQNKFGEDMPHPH

[14] = system: human CLL cells; assay type: cell-based
[15] = system: BCR-ABL Arf−/− murine ALL cells; assay: activity against BCR-ABL ALL cells in vitro; assay type: cell-based
Method: Cell lines were cultured using standard protocols provided by ATCC. Myc Arf^−/− cells were cultured as described (Jiang et al, [2009]). BCR-ABL mouse ALL cells were a kind gift from Dr. Richard Williams. CY190602 and its derivatives compound A and B were synthesized by Dr. Wang's Laboratory (U. New Mexico). Other chemicals were purchased from Selleck, EMD, or VWR. Antibodies against γ-H2AX (Millipore), actin (Sigma), H3K18Ac, H3K9Ac, and H3K56Ac (Cell Signaling) were used for Western blotting.
as §2

[16] = system: BCR-ABL ALL cells; assay: survival of mice transplanted with BCR-ABL ALL cells; assay type: in vivo; details: for survival extension: treatment at MTD, mice transplanted with BCR-ABL ALL cells
Method: as §1, with “BCR-ABL cells have been previously described (Williams et al, [2006]). For in vivo experiments, 1 million cells were injected into mice via tail vein (Williams et al, [2006]).” left out

[17] = system: HDAC1-6; assay: cell-free HDAC activity assays, HDAC1-6 overall; assay type: biochemical; details: Fig2A and 2B
[18] = mice; ref according to the literature; cited from earlier work
[19] = system: γ-H2AX in H1650 cells; assay: γ-H2AX Western blot (DNA damage) in H1650 cells; assay type: cell-based; details: 12 h
[20] = system: human cancer cell lines; assay: cancer cell killing / MTT viability (LD50); assay type: cell-based
[21] = median over NCI60 cell lines, read-out: median growth inhibitor concentration (GI50)
[22] = H1650 cells, 6 h, bendamustine 350 μM, CY 15 μM, SAHA 10 μM

Structure (SMILES): Cn1c(CCCCCCC(=O)NO)nc2cc(N(CCCl)CCCl)ccc21 [CY190602]
- anticancer activity in H460 xenograft compared with bendamustine [1]: superior to bendamustine
- inhibition of HDAC activities in cancer cells (histone acetylation markers) [2]: inhibited HDAC activities
- GI50 ([3]; average over NCI60 cell lines, read-out: average GI50): 3200 nM
- GI50 [3, 21]: 2200 nM
- IC50 [4]: 10 nM
- viability at 72 h, 20 μM [5]: ~40%
- IC50 [6]: 25 nM
- GI50 [7]: 57000 nM
- IC50 [8]: 6.4 nM
- expression of Tip60, CBP, MORF and MSL1 [9, 22]: greatly suppressed
- MTD [10]: 60 mg/kg
- IC50 ([11]; HDAC1 Assay (plot legend value), Fig 2A upper panel): 9 nM
- IC50 ([11]; IC50 of CY, HDAC1, Fig 2A lower panel): 17 nM
- effect on AML cells [12]: nearly eliminated AML cells
- effect on mouse CD45+ (hematopoeitc lineage) cells [12]: minimal effect
- IC50 [13]: 72 nM
- CLL cells killed at 5 μM ([14]; 5 μM, 72 h): nearly all
- activity in cultured BCR-ABL ALL cells compared with bendamustine [15]: more active than bendamustine
- survival extension compared with cyclophosphamide, doxorubicin, cytarabine, and vincristine ([16]; drugs at MTD): superior to these drugs
- survival extension [16]: 14 days

- effect on mouse CD45+ (hematopoeitc lineage) cells [12]: nearly wiped out CD45+ cells
Structure (SMILES): Nc1ccn([C@@H]2O[C@H](CO)[C@@H](O)[C@@H]2O)c(=O)n1 [Cytarabine, reference compound]
- effect on AML cells [12]: didn’t kill AML cells as quickly, or as thoroughly as did CY

Structure (SMILES): CC(C)n1nc(-c2cc3cc(O)ccc3[nH]2)c2c(N)ncnc21 [PP242]
- survival extension, daily treatment ([16]; daily dose): 8 days

Structure (SMILES): O=C(CCCCCCC(=O)Nc1ccccc1)NO [SAHA]
- expression of Tip60, CBP, MORF and MSL1 [9]: significant suppression
- survival extension [16]: approximately 2 days

Structure (SMILES): Cn1c(CCCC(=O)O)nc2cc(N(CCCl)CCCl)ccc21 [bendamustine]
- inhibition of HDAC activities in cancer cells (histone acetylation markers) [2]: not
- GI50 [3, 21]: 77000 nM
- GI50 ([3]; read-out: GI50 for most cancer cell lines of the NCI 60 test): > 100000 nM
- GI50 ([7]; MEFs, authors' response in review file): ~390000 nM
- expression of Tip60, CBP, MORF and MSL1 [9, 22]: not
- HDAC inhibition [17]: inability to inhibit HDAC
- MTD [18]: 40 mg/kg
- CLL cells killed at 100 μM ([14]; 100 μM, 72 h): about 80%
- survival extension [16]: ~5 days

Structure (SMILES): Cn1c(CCCCCCC(=O)NO)nc2cc(N(CCO)CCO)ccc21 [compound A]
- inhibition of HDAC activities in cancer cells (histone acetylation markers) [2]: inhibited HDAC activities
- level of γ-H2AX in bendamustine-treated cells ([19]; 100 μM Bend plus 50 μM Cpd A): significantly increased
- DNA damage (γ-H2AX) by the compound alone ([19]; H1650 cells): did not cause DNA damage
- synergy with bendamustine in killing cancer cells ([20]; nontoxic dose of Cpd A plus bendamustine): significantly synergized with bendamustine
- killing of cancer cells ([20]; up to 200 μM, 48 h): very ineffective in killing cancer cells

Structure (SMILES): Cn1c(CCCCCCC(=O)O)nc2cc(N(CCCl)CCCl)ccc21 [compound B]
- inhibition of HDAC activities in cancer cells (histone acetylation markers) [2]: little HDAC inhibitory activity
- inhibition of HDAC activities in cancer cells (histone acetylation markers) ([2]; listed as CpdB): not

Structure (SMILES): Nc1nc(F)nc2c1ncn2[C@@H]1O[C@H](CO)[C@@H](O)[C@@H]1O [fludarabine]
- CLL cells killed at 100 μM [14]: about 80%
